Results published in the CheMixHub viscosity set.
Several values for one entry are separate records, joined by “and”; a condition that tells them apart may be missing. Equal entries are not always repeated. ± gives the uncertainty stated by the source.

CCI
Details	viscosity [mPa·s]
298.15 K, 101 kPa	0.577 ± 0.008

CCOCCOCCO
101 kPa
Details	viscosity
293.15 K	4.291 ± 0.079 mPa·s and 3.626 ± 0.022 mPa·s
298.15 K	3.799 ± 0.05 mPa·s and 3.686 ± 0.077 mPa·s and 3.278 ± 0.02 mPa·s
303.15 K	3.186 ± 0.075 mPa·s and 2.862 ± 0.018 mPa·s
308.15 K	2.839 ± 0.038 mPa·s and 2.859 ± 0.074 mPa·s and 2.507 ± 0.016 mPa·s
313.15 K	2.511 ± 0.073 mPa·s
318.15 K	2.358 ± 0.031 mPa·s and 2.269 ± 0.073 mPa·s

CCn1cc[n+](CCOC)c1.O=S(=O)([N-]S(=O)(=O)C(F)(F)F)C(F)(F)F
100 kPa
Details	viscosity [mPa·s]
293.15 K	43.63 ± 0.49
298.15 K	35.49 ± 0.4
303.15 K	29.33 ± 0.33
308.15 K	24.58 ± 0.28
313.15 K	20.86 ± 0.23
318.15 K	18.03 ± 0.2

CN(C)C=O
Details	viscosity
293.15 K, 100 kPa	0.855 ± 0.025 mPa·s
293.15 K, 101.33 kPa	0.9248 ± 0.03 mPa·s and 0.88 ± 0.13 mPa·s
298.15 K, 100 kPa	0.82 ± 0.024 mPa·s and 0.843 ± 0.035 mPa·s
298.15 K, 101.3 kPa	0.792 ± 0.021 mPa·s
298.15 K, 101.33 kPa	0.83 ± 0.12 mPa·s
302.15 K, 101 kPa	1.032 ± 0.21 mPa·s
303 K, 101.33 kPa	0.758 ± 0.016 mPa·s
303.15 K, 101.3 kPa	0.7675 ± 0.0099 mPa·s and 0.7524 ± 0.02 mPa·s
303.15 K, 101.33 kPa	0.78 ± 0.12 mPa·s
305.15 K, 101 kPa	0.979 ± 0.2 mPa·s
308 K, 101.33 kPa	0.721 ± 0.016 mPa·s
308.15 K, 100 kPa	0.729 ± 0.021 mPa·s and 0.718 ± 0.016 mPa·s
308.15 K, 101.3 kPa	0.7077 ± 0.019 mPa·s
308.15 K, 101.33 kPa	0.74 ± 0.11 mPa·s
313.15 K, 100 kPa	0.687 ± 0.02 mPa·s and 0.688 ± 0.008 mPa·s
313.15 K, 101.3 kPa	0.6644 ± 0.018 mPa·s
313.15 K, 101.33 kPa	0.7143 ± 0.024 mPa·s and 0.7 ± 0.11 mPa·s
318 K, 101.3 kPa	0.6348 ± 0.024 mPa·s
318 K, 101.33 kPa	0.6348 ± 0.039 mPa·s
318.15 K, 100 kPa	0.652 ± 0.019 mPa·s
318.15 K, 101.33 kPa	0.67 ± 0.1 mPa·s
323.15 K, 101.33 kPa	0.63 ± 0.09 mPa·s

COCC(C)O (configuration not stated)
viscosity
Details	298.15 K	303.15 K	308.15 K	313.15 K	318.15 K
101 kPa	1.55 ± 0.15 mPa·s	1.3 ± 0.13 mPa·s	1.22 ± 0.12 mPa·s	1.11 ± 0.11 mPa·s	1.04 ± 0.1 mPa·s
101.33 kPa	1.671 ± 0.015 mPa·s and 1.723 ± 0.041 mPa·s and 1.694 ± 0.026 mPa·s	–	1.374 ± 0.033 mPa·s and 1.329 ± 0.021 mPa·s	–	1.09 ± 0.027 mPa·s and 1.078 ± 0.017 mPa·s

Cc1ccnc(C)c1
101 kPa
Details	viscosity
303 K	0.7893 ± 0.0064 mPa·s and 0.7892 ± 0.0064 mPa·s
313 K	0.6863 ± 0.0056 mPa·s and 0.686 ± 0.0056 mPa·s
323 K	0.6133 ± 0.0051 mPa·s and 0.6129 ± 0.0051 mPa·s

ClC(Cl)=C(Cl)Cl
Details	viscosity
293.15 K, 101.33 kPa	0.8 ± 0.015 mPa·s
298 K, 101 kPa	1.02 ± 0.12 mPa·s
298.15 K, 101 kPa	0.838 ± 0.022 mPa·s and 0.8486 ± 0.0072 mPa·s and 0.8426 ± 0.0072 mPa·s
298.15 K, 101.33 kPa	0.846 ± 0.008 mPa·s
303 K, 101 kPa	0.97 ± 0.12 mPa·s
303.15 K, 101 kPa	0.7976 ± 0.0065 mPa·s and 0.798 ± 0.007 mPa·s and 0.814 ± 0.007 mPa·s
303.15 K, 101.3 kPa	0.799 ± 0.013 mPa·s
303.15 K, 101.32 kPa	0.7976 ± 0.0094 mPa·s
308 K, 101 kPa	0.92 ± 0.11 mPa·s
313 K, 101 kPa	0.88 ± 0.11 mPa·s
313.15 K, 101.33 kPa	0.731 ± 0.02 mPa·s and 0.68 ± 0.013 mPa·s

O=[N+]([O-])c1ccccc1
viscosity
Details	293.15 K	298.15 K	303.15 K	308.15 K	313.15 K	318.15 K	323.15 K
100 kPa	2.087 ± 0.043 mPa·s	1.909 ± 0.04 mPa·s	1.755 ± 0.038 mPa·s	–	1.501 ± 0.035 mPa·s	1.397 ± 0.034 mPa·s	1.303 ± 0.032 mPa·s
101 kPa	1.931 ± 0.019 mPa·s	–	–	1.457 ± 0.011 mPa·s and 1.242 ± 0.0097 mPa·s and 1.601 ± 0.019 mPa·s	1.402 ± 0.036 mPa·s	–	1.192 ± 0.032 mPa·s
101.3 kPa	–	1.773 ± 0.042 mPa·s	–	–	1.373 ± 0.033 mPa·s	–	–
101.33 kPa	2.024 ± 0.047 mPa·s and 2.079 ± 0.11 mPa·s and 2.079 ± 0.21 mPa·s	–	1.665 ± 0.078 mPa·s	–	–	–	–

c1ccccc1
Details	viscosity
293.15 K, 100 kPa	0.641 ± 0.03 mPa·s and 0.656 ± 0.033 mPa·s
293.15 K, 101 kPa	0.644 ± 0.013 mPa·s and 0.629 ± 0.006 mPa·s and 0.646 ± 0.011 mPa·s
293.15 K, 101.33 kPa	0.645 ± 0.004 mPa·s and 0.645 ± 0.006 mPa·s
293.16 K, 101 kPa	0.652 ± 0.017 mPa·s
294.35 K, 101.33 kPa	0.6559 ± 0.0076 mPa·s
298 K, 101 kPa	0.6139 ± 0.0087 mPa·s
298 K, 101.33 kPa	0.596 ± 0.008 mPa·s
298.15 K, 100 kPa	0.6121 ± 0.074 mPa·s
298.15 K, 101.3 kPa	0.609 ± 0.0056 mPa·s
303.15 K, 101.32 kPa	0.576 ± 0.004 mPa·s
303.95 K, 101.33 kPa	0.5989 ± 0.0069 mPa·s
304.85 K, 101.33 kPa	0.5927 ± 0.0069 mPa·s
307.35 K, 101.33 kPa	0.53 ± 0.0095 mPa·s
307.4 K, 101.33 kPa	0.309 ± 0.003 mPa·s
312.95 K, 101.33 kPa	0.5173 ± 0.006 mPa·s
313 K, 101 kPa	0.4925 ± 0.0035 mPa·s and 0.4923 ± 0.0035 mPa·s and 0.4923 ± 0.0033 mPa·s
313 K, 101.33 kPa	0.489 ± 0.007 mPa·s
313.15 K, 100 kPa	0.491 ± 0.025 mPa·s
313.25 K, 101.33 kPa	0.5324 ± 0.015 mPa·s
318 K, 101 kPa	0.4788 ± 0.0071 mPa·s
318 K, 101.3 kPa	0.4765 ± 0.019 mPa·s
318.15 K, 101.33 kPa	0.553 ± 0.016 mPa·s and 0.553 ± 0.06 mPa·s
322.75 K, 101.33 kPa	0.4749 ± 0.0055 mPa·s
322.85 K, 101.33 kPa	0.4803 ± 0.0055 mPa·s
323.15 K, 100 kPa	0.435 ± 0.022 mPa·s
323.15 K, 101 kPa	0.438 ± 0.009 mPa·s and 0.4367 ± 0.0041 mPa·s and 0.434 ± 0.012 mPa·s
